The target in the assay is T1, Ubiquitin carboxyl-terminal hydrolase 7 [208-1102] (Human, UniProt Q93009).
T1 construct: 208-1102
In words: USP7 Assay A (Ubitquin-Rhodamine 110 Assay). On the procedure: Each assay was performed in a final volume of 15 μL in assay buffer containing 20 mM Tris-HCl (pH 8.0, (1M Tris-HCl, pH 8.0 solution; Corning 46-031-CM)), 1 mM GSH (L-Glutathione reduced; Sigma # G4251), 0.03% BGG (0.22 μM filtered, Sigma, # G7516-25G), and 0.01% Triton X-100 (Sigma, # T9284-10L). Nanoliter quantities of either an 8-point or 10-point, 3-fold serial dilution in DMSO was pre-dispensed into assay plates (Perkin Elmer, ProxiPlate-384 F Plus, #6008269) for a final test concentration range of either 25 μM to 11 nM or 25 μM to 1.3 nM, respectively. The final concentration of the enzyme (USP7, construct USP7 (208-1102) 6*His, Viva Biotech) in the assay was 62.5 pM. Final substrate (Ub-Rh110; Ubiquitin-Rhodamine 110, R&D Systems # U-555) concentration was 25 nM with [Ub-Rh110]<<Km. 5 μL of 2× enzyme was added to assay plates (pre-stamped with compound) preincubated with USP7 for 30 min and then 5 μL of 2×Ub-Rh110 was added to assay plates. Plates were incubated stacked for 20 min at room temperature before 5 μL of stop solution (final concentration of 10 mM citric acid in assay buffer (Sigma, #251275-500G)). Fluorescence was read on the Envision (Excitation at 485 nm and Emission at 535 nm; Perkin Elmer) or on the PheraSTAR (Excitation at 485 nm and Emission at 535 nm; BMG Labtech).

pIC50: −log10 of the molar value.

T1 sequence (Q93009 208-1102): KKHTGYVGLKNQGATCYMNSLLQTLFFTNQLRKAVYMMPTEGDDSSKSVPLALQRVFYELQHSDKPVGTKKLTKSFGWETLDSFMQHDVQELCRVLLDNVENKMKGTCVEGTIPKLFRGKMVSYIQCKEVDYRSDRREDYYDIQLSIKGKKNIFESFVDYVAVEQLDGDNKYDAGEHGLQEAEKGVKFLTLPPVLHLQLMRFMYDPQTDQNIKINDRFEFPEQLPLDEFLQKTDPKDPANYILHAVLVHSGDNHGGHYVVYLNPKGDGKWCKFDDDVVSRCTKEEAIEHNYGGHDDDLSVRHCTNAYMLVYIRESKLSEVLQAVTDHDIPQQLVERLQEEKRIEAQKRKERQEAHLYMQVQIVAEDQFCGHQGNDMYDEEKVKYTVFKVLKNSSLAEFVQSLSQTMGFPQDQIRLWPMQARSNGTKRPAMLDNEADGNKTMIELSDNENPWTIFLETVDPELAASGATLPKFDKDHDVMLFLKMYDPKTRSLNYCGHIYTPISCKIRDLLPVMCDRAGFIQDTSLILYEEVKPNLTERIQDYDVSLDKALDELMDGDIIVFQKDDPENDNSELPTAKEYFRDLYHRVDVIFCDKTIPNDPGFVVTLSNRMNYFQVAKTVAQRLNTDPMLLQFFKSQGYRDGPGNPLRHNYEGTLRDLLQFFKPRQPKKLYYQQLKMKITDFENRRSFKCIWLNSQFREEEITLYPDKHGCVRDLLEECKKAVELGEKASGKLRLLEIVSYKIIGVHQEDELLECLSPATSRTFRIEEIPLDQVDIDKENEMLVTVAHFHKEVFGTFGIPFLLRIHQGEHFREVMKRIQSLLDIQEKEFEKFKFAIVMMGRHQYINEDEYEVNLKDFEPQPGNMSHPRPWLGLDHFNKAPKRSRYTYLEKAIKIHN

The compound `COc1cccc2c(=O)n(CC3(O)CCN(C(=O)CC(C)c4ccccc4)CC3)cnc12` (stereo unspecified) [US10836741, Example I-6] showed a pIC50 of more than 6.70.

For the origin of these results see BindingDB's records for patent US10836741 (Valo Early Discovery, Inc., 2020).
